Holding throughout (experiment): cell-based
One experiment addresses hNav1.5 (Homo sapiens, UniProt Q14524). Conditions: for IC50: PatchXpress, read-out: PX hNav1.5 Tonic IC50; for Nav1.5/Nav1.7: ratio of PX tonic IC50 values.
In the next experiment the target is hNav1.7 (Homo sapiens, UniProt Q15858). Format: cell-based. The settings on record: PatchXpress, read-out: PX hNav1.7 Tonic IC50.
A further experiment concerns the target hNav1.4 (Homo sapiens, UniProt P35499). Conditions: for IC50: PatchXpress, read-out: PX hNav1.4 Tonic IC50.
Where [1] appears, read: * = at high concentrations compound would wash off slowly or not at all.

Like-named read-outs stand apart in the source and are kept apart here.

What is called IC50 is the concentration that inhibits the measured activity by half.

hNav1.7, sequence (Q15858 whole entry): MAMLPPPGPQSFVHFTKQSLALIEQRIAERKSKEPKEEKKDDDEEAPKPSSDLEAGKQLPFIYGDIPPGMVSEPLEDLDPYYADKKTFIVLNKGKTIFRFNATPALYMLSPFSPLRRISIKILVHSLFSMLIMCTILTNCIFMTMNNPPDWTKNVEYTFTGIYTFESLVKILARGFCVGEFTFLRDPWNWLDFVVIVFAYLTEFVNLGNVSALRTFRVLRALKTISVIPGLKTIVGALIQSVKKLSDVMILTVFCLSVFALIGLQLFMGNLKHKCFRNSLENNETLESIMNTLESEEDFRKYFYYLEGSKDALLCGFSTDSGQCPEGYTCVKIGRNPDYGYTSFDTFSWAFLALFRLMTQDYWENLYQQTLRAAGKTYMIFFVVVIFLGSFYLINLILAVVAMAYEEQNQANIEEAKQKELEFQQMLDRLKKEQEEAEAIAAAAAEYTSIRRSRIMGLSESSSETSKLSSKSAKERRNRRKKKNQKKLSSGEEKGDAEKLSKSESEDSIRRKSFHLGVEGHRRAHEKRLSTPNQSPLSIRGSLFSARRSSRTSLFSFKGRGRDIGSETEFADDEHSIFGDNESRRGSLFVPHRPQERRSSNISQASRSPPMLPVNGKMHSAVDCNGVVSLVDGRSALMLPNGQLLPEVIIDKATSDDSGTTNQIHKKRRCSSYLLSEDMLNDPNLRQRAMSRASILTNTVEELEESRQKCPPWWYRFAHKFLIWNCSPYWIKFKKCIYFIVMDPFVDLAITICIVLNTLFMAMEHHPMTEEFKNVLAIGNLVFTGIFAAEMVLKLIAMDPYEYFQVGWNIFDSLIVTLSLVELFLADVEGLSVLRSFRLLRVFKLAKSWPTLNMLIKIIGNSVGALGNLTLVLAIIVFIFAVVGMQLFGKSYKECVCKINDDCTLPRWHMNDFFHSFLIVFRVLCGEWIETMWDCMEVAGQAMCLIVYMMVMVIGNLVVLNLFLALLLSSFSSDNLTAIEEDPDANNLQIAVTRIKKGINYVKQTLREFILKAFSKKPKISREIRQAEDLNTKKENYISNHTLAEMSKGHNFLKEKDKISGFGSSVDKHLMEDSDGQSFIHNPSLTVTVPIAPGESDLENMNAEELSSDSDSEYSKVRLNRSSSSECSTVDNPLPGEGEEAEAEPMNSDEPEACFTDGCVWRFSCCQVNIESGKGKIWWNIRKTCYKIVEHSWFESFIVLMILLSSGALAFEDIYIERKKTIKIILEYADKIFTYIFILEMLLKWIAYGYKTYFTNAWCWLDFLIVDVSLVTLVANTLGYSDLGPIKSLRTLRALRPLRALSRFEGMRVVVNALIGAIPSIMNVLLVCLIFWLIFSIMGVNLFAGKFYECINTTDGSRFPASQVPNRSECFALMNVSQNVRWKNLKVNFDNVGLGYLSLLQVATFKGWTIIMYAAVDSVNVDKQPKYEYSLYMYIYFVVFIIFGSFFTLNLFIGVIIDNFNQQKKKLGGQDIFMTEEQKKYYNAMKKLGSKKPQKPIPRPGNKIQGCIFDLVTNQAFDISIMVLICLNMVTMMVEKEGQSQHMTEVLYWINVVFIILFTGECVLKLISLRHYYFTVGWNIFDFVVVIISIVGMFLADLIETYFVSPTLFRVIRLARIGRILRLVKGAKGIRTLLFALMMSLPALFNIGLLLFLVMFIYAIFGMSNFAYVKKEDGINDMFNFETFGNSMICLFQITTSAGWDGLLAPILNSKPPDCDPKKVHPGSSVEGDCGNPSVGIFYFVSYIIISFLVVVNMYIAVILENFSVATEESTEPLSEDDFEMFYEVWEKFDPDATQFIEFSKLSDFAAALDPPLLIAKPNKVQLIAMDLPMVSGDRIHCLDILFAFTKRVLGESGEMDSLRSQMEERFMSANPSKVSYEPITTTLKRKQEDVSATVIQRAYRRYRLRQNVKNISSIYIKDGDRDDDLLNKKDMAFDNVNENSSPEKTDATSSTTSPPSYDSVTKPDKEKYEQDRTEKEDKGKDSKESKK
hNav1.5, sequence (Q14524 whole entry): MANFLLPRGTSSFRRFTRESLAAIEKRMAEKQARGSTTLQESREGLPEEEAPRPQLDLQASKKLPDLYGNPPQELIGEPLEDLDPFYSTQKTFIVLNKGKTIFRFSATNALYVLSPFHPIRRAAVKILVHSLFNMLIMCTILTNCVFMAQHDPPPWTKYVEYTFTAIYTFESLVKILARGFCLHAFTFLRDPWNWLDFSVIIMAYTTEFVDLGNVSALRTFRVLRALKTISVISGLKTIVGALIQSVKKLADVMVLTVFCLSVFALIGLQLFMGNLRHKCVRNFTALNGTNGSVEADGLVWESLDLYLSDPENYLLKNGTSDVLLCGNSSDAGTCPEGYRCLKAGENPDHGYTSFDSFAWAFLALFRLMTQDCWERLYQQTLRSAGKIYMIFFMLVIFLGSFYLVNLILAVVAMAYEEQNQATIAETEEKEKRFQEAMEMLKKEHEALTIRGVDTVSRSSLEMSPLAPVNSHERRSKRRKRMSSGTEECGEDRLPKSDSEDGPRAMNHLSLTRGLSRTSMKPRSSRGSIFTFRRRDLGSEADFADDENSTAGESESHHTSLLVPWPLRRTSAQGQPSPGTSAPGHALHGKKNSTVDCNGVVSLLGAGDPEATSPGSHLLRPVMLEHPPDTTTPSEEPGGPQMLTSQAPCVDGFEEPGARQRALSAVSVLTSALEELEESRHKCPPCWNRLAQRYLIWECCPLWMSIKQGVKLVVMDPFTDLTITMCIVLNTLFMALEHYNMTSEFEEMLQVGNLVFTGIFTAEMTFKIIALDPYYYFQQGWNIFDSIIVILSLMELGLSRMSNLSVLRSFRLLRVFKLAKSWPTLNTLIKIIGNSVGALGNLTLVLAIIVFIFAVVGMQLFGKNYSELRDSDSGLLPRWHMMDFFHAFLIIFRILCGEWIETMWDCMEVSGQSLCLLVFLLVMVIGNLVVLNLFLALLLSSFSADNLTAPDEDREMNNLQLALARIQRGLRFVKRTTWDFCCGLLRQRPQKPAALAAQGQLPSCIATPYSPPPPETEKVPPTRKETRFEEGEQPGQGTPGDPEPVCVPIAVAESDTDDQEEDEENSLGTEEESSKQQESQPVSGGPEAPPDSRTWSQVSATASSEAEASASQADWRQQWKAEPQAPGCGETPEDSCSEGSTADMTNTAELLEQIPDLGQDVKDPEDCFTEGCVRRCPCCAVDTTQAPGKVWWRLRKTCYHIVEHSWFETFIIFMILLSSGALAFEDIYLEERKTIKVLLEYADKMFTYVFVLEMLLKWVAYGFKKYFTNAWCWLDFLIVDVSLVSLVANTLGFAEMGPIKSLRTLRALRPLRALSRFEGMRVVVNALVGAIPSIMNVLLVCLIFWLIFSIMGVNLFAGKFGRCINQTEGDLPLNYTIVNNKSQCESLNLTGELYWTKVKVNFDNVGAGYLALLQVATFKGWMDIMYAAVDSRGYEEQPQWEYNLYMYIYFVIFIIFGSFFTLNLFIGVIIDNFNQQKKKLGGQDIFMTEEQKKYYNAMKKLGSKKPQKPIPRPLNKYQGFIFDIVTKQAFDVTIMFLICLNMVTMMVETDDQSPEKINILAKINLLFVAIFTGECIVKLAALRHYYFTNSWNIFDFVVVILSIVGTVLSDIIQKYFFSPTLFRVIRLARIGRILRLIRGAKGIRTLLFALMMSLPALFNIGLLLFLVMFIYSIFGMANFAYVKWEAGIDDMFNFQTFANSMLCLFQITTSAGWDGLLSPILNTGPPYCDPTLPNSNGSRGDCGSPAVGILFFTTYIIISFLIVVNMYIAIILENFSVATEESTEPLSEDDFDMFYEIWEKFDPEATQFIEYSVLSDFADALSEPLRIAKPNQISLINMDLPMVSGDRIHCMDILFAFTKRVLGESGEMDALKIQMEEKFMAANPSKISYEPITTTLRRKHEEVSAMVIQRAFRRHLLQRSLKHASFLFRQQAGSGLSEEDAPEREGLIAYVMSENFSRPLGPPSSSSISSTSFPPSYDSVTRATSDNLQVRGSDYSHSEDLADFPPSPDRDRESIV

For the compound `CCCC[C@@H]1NC(=O)[C@H](Cc2c[nH]c3ccccc23)NC(=O)[C@H](CCCCN)NC(=O)[C@H](CCC(N)=O)NC(=O)[C@@H](NC(=O)[C@H](Cc2ccc(O)cc2)NC(=O)[C@@H](N)CCc2ccccc2)CSSC[C@@H]2NC(=O)[C@@H]3CSSC[C@@H](C(=O)N[C@@H](CCCNC(=N)N)C(=O)N[C@@H](CCCCN)C(=O)N[C@H](C(=O)N[C@H](C(N)=O)[C@@H](C)CC)[C@@H](C)CC)NC(=O)[C@H](Cc4c[nH]c5ccccc45)NC(=O)[C@H](CC(C)C)NC(=O)[C@H](CCCCN)NC(=O)[C@H](CSSC[C@H](NC(=O)[C@H]([C@@H](C)O)NC(=O)[C@H](Cc4c[nH]c5ccccc45)NC1=O)C(=O)N[C@@H](CC(=O)O)C(=O)N[C@@H](CO)C(=O)N[C@@H](CCCCN)C(=O)N[C@@H](CCCNC(=N)N)C(=O)N[C@@H](C)C(=O)N3)NC(=O)[C@H](CCCNC(=N)N)NC(=O)[C@H](CC(C)C)NC(=O)CNC(=O)[C@H](CCC(=O)O)NC2=O` [compound 379], the IC50 at hNav1.5 (setting [1]) stood at 440 nM; on hNav1.7 (setting [1]), 0.476 nM; on hNav1.4 (setting [1]) it was 4.8 nM. Besides, the Nav1.4/Nav1.7 on hNav1.4 (ratio of PX IC50 values) was found to be 10.

Consider `C#CC[C@H](N)C(=O)N[C@H]1CSSC[C@@H]2NC(=O)[C@@H]3CSSC[C@@H](C(=O)N[C@@H](CCCNC(=N)N)C(=O)N[C@@H](CCCCN)C(=O)N[C@H](C(=O)N[C@H](C(N)=O)[C@@H](C)CC)[C@@H](C)CC)NC(=O)[C@H](Cc4c[nH]c5ccccc45)NC(=O)[C@H](CC(C)C)NC(=O)[C@H](CCCCN)NC(=O)[C@H](CSSC[C@H](NC(=O)[C@H]([C@@H](C)O)NC(=O)[C@H](Cc4c[nH]c5ccccc45)NC(=O)[C@H](CCCC)NC(=O)[C@H](Cc4c[nH]c5ccccc45)NC(=O)[C@H](CCCCN)NC(=O)[C@H](CCC(N)=O)NC1=O)C(=O)N[C@@H](CC(=O)O)C(=O)N[C@@H](CO)C(=O)N[C@@H](CCCCN)C(=O)N[C@@H](CCCNC(=N)N)C(=O)N[C@@H](C)C(=O)N3)NC(=O)[C@H](CCC(=O)O)NC(=O)[C@H](CC(C)C)NC(=O)CNC(=O)[C@H](CCC(=O)O)NC2=O` [compound 343], for which the concentration for half-maximal inhibition (IC50) turned out to be 2660 nM at hNav1.5 (tonic block), 2.63 nM on hNav1.7 (tonic block) and 790 nM on hNav1.4 (tonic block). For the same compound, the Nav1.4/Nav1.7 on hNav1.4 (ratio of PX tonic IC50 values) stood at 300.

For the compound `CCCC[C@@H]1NC(=O)[C@H](Cc2c[nH]c3ccccc23)NC(=O)[C@H](CCCCN)NC(=O)[C@H](CCC(N)=O)NC(=O)[C@@H](NC(=O)[C@@H](N)Cc2ccc(O)cc2)CSSC[C@@H]2NC(=O)[C@@H]3CSSC[C@@H](C(=O)N[C@@H](CCCNC(=N)N)C(=O)N[C@@H](CCCCN)C(=O)N[C@H](C(=O)N[C@@H](Cc4c[nH]c5ccccc45)C(N)=O)[C@@H](C)CC)NC(=O)[C@H](Cc4c[nH]c5ccccc45)NC(=O)[C@H](CC(C)C)NC(=O)[C@H](CCCCN)NC(=O)[C@H](CSSC[C@H](NC(=O)[C@H]([C@@H](C)O)NC(=O)[C@H](Cc4c[nH]c5ccccc45)NC1=O)C(=O)N[C@@H](CC(=O)O)C(=O)N[C@@H](CCCCN=[N+]=[N-])C(=O)N[C@@H](CCCCN)C(=O)N[C@@H](CCCNC(=N)N)C(=O)N[C@@H](C)C(=O)N3)NC(=O)[C@H](CCC(=O)O)NC(=O)[C@H](CC(C)C)NC(=O)CNC(=O)[C@H](CCC(=O)O)NC2=O` [compound 305], the Nav1.5/Nav1.7 at hNav1.5 is 0. Besides, the IC50 at hNav1.7 (tonic block) is 435 nM. The Nav1.4/Nav1.7 on hNav1.4 (ratio of PX tonic IC50 values) worked out at 0.

`C#CC[C@@H]1NC(=O)[C@H](CC(=O)O)NC(=O)[C@@H]2CSSC[C@@H]3NC(=O)[C@H](CCCNC(=N)N)NC(=O)[C@H](CC(C)C)NC(=O)CNC(=O)[C@H](CCC(=O)O)NC(=O)[C@H](CSSC[C@H](NC(=O)[C@@H](N)Cc4ccc(O)cc4)C(=O)N[C@@H](CCC(N)=O)C(=O)N[C@@H](CCCCN)C(=O)N[C@@H](Cc4c[nH]c5ccccc45)C(=O)N[C@@H](CCCC)C(=O)N[C@@H](Cc4c[nH]c5ccccc45)C(=O)N[C@@H]([C@@H](C)O)C(=O)N2)NC(=O)[C@H](CSSC[C@@H](C(=O)N[C@@H](CCCNC(=N)N)C(=O)N[C@@H](CCCCN)C(=O)N[C@@H](CCC(=O)O)C(=O)N[C@H](C(N)=O)[C@@H](C)CC)NC(=O)[C@H](Cc2c[nH]c4ccccc24)NC(=O)[C@H](CC(C)C)NC(=O)[C@H](CCCCN)NC3=O)NC(=O)[C@H](C)NC(=O)[C@H](CCCNC(=N)N)NC(=O)[C@H](CCCCN)NC1=O` [compound 330]: the concentration for half-maximal inhibition (IC50) on hNav1.5 (tonic block) was found to be 5980 nM; on hNav1.7 (tonic block) it was 0.763 nM; at hNav1.4 (tonic block), 222 nM.

In the case of `C#CC[C@H](N)C(=O)N[C@@H](Cc1ccc(O)cc1)C(=O)N[C@H]1CSSC[C@@H]2NC(=O)[C@@H]3CSSC[C@@H](C(=O)N[C@@H](CCCNC(=N)N)C(=O)N[C@@H](CCCCN)C(=O)N[C@H](C(=O)N[C@@H](Cc4c[nH]c5ccccc45)C(N)=O)[C@@H](C)CC)NC(=O)[C@H](Cc4c[nH]c5ccccc45)NC(=O)[C@H](CC(C)C)NC(=O)[C@H](CCCCN)NC(=O)[C@H](CSSC[C@H](NC(=O)[C@H]([C@@H](C)O)NC(=O)[C@H](Cc4c[nH]c5ccccc45)NC(=O)[C@H](CCC)NC(=O)[C@H](Cc4c[nH]c5ccccc45)NC(=O)[C@H](CCCCN)NC(=O)[C@H](CCC(N)=O)NC1=O)C(=O)N[C@@H](CC(=O)O)C(=O)N[C@@H](CO)C(=O)N[C@@H](CCCCN)C(=O)N[C@@H](CCCNC(=N)N)C(=O)N[C@@H](C)C(=O)N3)NC(=O)[C@H](CCC(=O)O)NC(=O)[C@H](CC(C)C)NC(=O)CNC(=O)[C@H](CCC(=O)O)NC2=O` [compound 300], the IC50 on hNav1.5 (tonic block) was 5300 nM; on hNav1.7 (tonic block), 0.818 nM; on hNav1.4 (tonic block), 967 nM.

For `CC[C@H](C)[C@H](NC(=O)[C@@H](NC(=O)[C@H](CCCCN)NC(=O)[C@H](CCCNC(=N)N)NC(=O)[C@@H]1CSSC[C@@H]2NC(=O)[C@H](C)NC(=O)[C@H](CCCNC(=N)N)NC(=O)[C@H](CCCCN)NC(=O)[C@H](CO)NC(=O)[C@H](CC(=O)O)NC(=O)[C@@H]3CSSC[C@H](NC(=O)[C@H](CCCNC(=N)N)NC(=O)[C@H](CC(C)C)NC(=O)CNC(=O)[C@H](CCC(=O)O)NC(=O)[C@H](CSSC[C@H](NC(=O)[C@@H](N)Cc4ccc(O)cc4)C(=O)N[C@@H](CCC(N)=O)C(=O)N[C@@H](CCCCN)C(=O)N[C@@H](Cc4c[nH]c5ccccc45)C(=O)N[C@@H](CCSC)C(=O)N[C@@H](Cc4cccc5ccccc45)C(=O)N[C@@H]([C@@H](C)O)C(=O)N3)NC2=O)C(=O)N[C@@H](CCCCN)C(=O)N[C@@H](CC(C)C)C(=O)N[C@@H](Cc2c[nH]c3ccccc23)C(=O)N1)[C@@H](C)CC)C(N)=O` [compound 30], the results for the IC50 at hNav1.5 (setting [1]), on hNav1.7 (setting [1]) and at hNav1.4 (setting [1]) were 1420 nM, 0.4 nM and 0.9 nM, respectively. At hNav1.4 (ratio of PX IC50 values), the Nav1.4/Nav1.7 came out at 2.

As to `C#CC[C@H](N)C(=O)N[C@@H](Cc1ccc(O)cc1)C(=O)N[C@H]1CSSC[C@@H]2NC(=O)[C@@H]3CSSC[C@@H](C(=O)N[C@@H](CCCNC(=N)N)C(=O)N[C@@H](CCCCN)C(=O)N[C@H](C(=O)N[C@@H](Cc4c[nH]c5ccccc45)C(N)=O)[C@@H](C)CC)NC(=O)[C@H](Cc4c[nH]c5ccccc45)NC(=O)[C@H](CC(C)C)NC(=O)[C@H](CCCCN)NC(=O)[C@H](CSSC[C@H](NC(=O)[C@H]([C@@H](C)O)NC(=O)[C@H](Cc4c[nH]c5ccccc45)NC(=O)[C@H](Cc4ccccc4)NC(=O)[C@H](Cc4c[nH]c5ccccc45)NC(=O)[C@H](CCCCN)NC(=O)[C@H](CCC(N)=O)NC1=O)C(=O)N[C@@H](CC(=O)O)C(=O)N[C@@H](CO)C(=O)N[C@@H](CCCCN)C(=O)N[C@@H](CCCNC(=N)N)C(=O)N[C@@H](C)C(=O)N3)NC(=O)[C@H](CCC(=O)O)NC(=O)[C@H](CC(C)C)NC(=O)CNC(=O)[C@H](CCC(=O)O)NC2=O` [compound 298], the IC50 at hNav1.5 (tonic block) is 780 nM; on hNav1.7 (tonic block), 15 nM; at hNav1.4 (tonic block) it was 661 nM. Further, the Nav1.5/Nav1.7 on hNav1.5 is 52. Further, the Nav1.4/Nav1.7 on hNav1.4 (ratio of PX tonic IC50 values) is on record as 44.

For the compound `CCCC[C@@H]1NC(=O)[C@H](Cc2c[nH]c3ccccc23)NC(=O)[C@H](CCCCN)NC(=O)[C@H](CCC(N)=O)NC(=O)[C@@H](NC(=O)[C@H](Cc2ccc(O)cc2)NC(=O)[C@H](N)Cc2ccccc2)CSSC[C@@H]2NC(=O)[C@@H]3CSSC[C@@H](C(=O)N[C@@H](CCCNC(=N)N)C(=O)N[C@@H](CCCCN)C(=O)N[C@H](C(=O)N[C@H](C(N)=O)[C@@H](C)CC)[C@@H](C)CC)NC(=O)[C@H](Cc4c[nH]c5ccccc45)NC(=O)[C@H](CC(C)C)NC(=O)[C@H](CCCCN)NC(=O)[C@H](CSSC[C@H](NC(=O)[C@H]([C@@H](C)O)NC(=O)[C@H](Cc4c[nH]c5ccccc45)NC1=O)C(=O)N[C@@H](CC(=O)O)C(=O)N[C@@H](CO)C(=O)N[C@@H](CCCCN)C(=O)N[C@@H](CCCNC(=N)N)C(=O)N[C@@H](C)C(=O)N3)NC(=O)[C@H](CCCNC(=N)N)NC(=O)[C@H](CC(C)C)NC(=O)CNC(=O)[C@H](CCC(=O)O)NC2=O` [compound 374], the figures for the IC50 at hNav1.5 (setting [1]), on hNav1.7 (setting [1]) and at hNav1.4 (setting [1]) were 620 nM, 0.351 nM and 6.8 nM, respectively. Also, the Nav1.4/Nav1.7 at hNav1.4 (ratio of PX IC50 values) is on record as 19.

For the compound `CCCC[C@@H]1NC(=O)[C@H](Cc2c[nH]c3ccccc23)NC(=O)[C@H](CCCCN)NC(=O)[C@H](CCC(N)=O)NC(=O)[C@@H](NC(=O)[C@@H](N)CCN=[N+]=[N-])CSSC[C@@H]2NC(=O)[C@@H]3CSSC[C@@H](C(=O)N[C@@H](CCCNC(=N)N)C(=O)N[C@@H](CCCCN)C(=O)N[C@H](C(=O)N[C@@H](Cc4c[nH]c5ccccc45)C(N)=O)[C@@H](C)CC)NC(=O)[C@H](Cc4c[nH]c5ccccc45)NC(=O)[C@H](CC(C)C)NC(=O)[C@H](CCCCN)NC(=O)[C@H](CSSC[C@H](NC(=O)[C@H]([C@@H](C)O)NC(=O)[C@H](Cc4c[nH]c5ccccc45)NC1=O)C(=O)N[C@@H](CC(=O)O)C(=O)N[C@@H](CO)C(=O)N[C@@H](CCCCN)C(=O)N[C@@H](CCCNC(=N)N)C(=O)N[C@@H](C)C(=O)N3)NC(=O)[C@H](CCC(=O)O)NC(=O)[C@H](CC(C)C)NC(=O)CNC(=O)[C@H](CCC(=O)O)NC2=O` [compound 309], the IC50 at hNav1.5 (tonic block) was found to be 2030 nM; at hNav1.7 (tonic block), 3.21 nM; at hNav1.4 (tonic block), 767 nM.
